From patent publication US20150148235A1, “HERBICIDE-RESISTANT SUNFLOWER PLANTS WITH MULTIPLE HERBICIDE RESISTANT ALLELES OF AHASL1 AND METHODS OF USE” (NIDERA S.A., priority 2013, published 2015)

Tested on: sunflower lines and hybrids carrying A122T and/or A205V AHASL1 alleles
Assay: Greenhouse whole-plant response to imazapyr doses (height, Phytotoxicity Index, dry biomass), Example 2
Format: in vivo, Helianthus annuus
Details: 14 DAT
Description: Seeds were sown in Petri dishes and, after germination, plantlets were transplanted to pots of 10 cm of diameter in a potting media consisting of equal parts of vermiculite, soil and sand. Plants were grown in a greenhouse under natural light conditions supplemented with 400 W sodium halide lamps to provide a 16 hr daylength. Day/night temperatures were 25 and 20° C., respectively. At the V2-V4 stage (Schneiter & Miller (1981) Crop Sci. 21:901-903) 10 plants of each genotype were randomly assigned to each treatment consisting of eight imazapyr doses (0, 40, 80, 160, 240, 320, 400 and 480 g ai/ha, corresponding to untreated, 0.5×, 1×, 2×, 3×, 4×, 5× and 6×, respectively), and a zero-time biomass determination. Experiment was arranged as a randomized block design with a full factorial (sunflower line×treatment) arrangement of treatments and 10 replications.
On the day of herbicide application ten plants of each genotype were cut at the cotyledonal node and dried at 60° C. for 48 hrs for zero-time dried weight determination.
The remaining plants were maintained for 14 days after imazapyr treatment (DAT) and their height, Phytotoxicity Index (PI) and above ground dry biomass were determined Height was determined as the distance between the cotyledonal node and the apex of each plant. Above ground biomass data from each line were converted to biomass accumulation after application by subtracting the appropriate average zero-time biomass from each sample. Dry biomass data were converted to percentages of the untreated control plants within each line to allow direct comparisons between groups.

[1] = H1 (A205V hybrid), 0.5x=40 g ai/ha
[2] = H2 (A122T hybrid), 0.5x=40 g ai/ha
[3] = H2 (A122T hybrid), 5x=400 g ai/ha
[4] = H3 (A122T/A205V hybrid), 1x=80 g ai/ha
[5] = H3 (A122T/A205V hybrid), 4x=320 g ai/ha
[6] = H3 (A122T/A205V hybrid), 6x=480 g ai/ha
[7] = H4 (A122T/A205V hybrid), 0.5x=40 g ai/ha
[8] = H4 (A122T/A205V hybrid), 2x=160 g ai/ha
[9] = H4 (A122T/A205V hybrid), 3x=240 g ai/ha

SMILES: CC(C)C1(C)N=C(c2ncccc2C(=O)O)NC1=O (stereo not drawn) [imazapyr]
- Difference between A205V vs A205V/A122T, Phytotoxicity Index (0.5x=40 g ai/ha): −0.50
- Difference between A205V vs A205V/A122T, biomass accumulation (0.5x=40 g ai/ha): −4.33 % of untreated
- Difference between A205V vs A205V/A122T, plant height (0.5x=40 g ai/ha): 0.21 % of untreated
- Difference between A1222T vs A205V/A122T, plant height (0.5x=40 g ai/ha): 0.49 % of untreated
- ifference between A1222T vs A205V/A122T, Phytotoxicity Index (0.5x=40 g ai/ha): −0.21
- ifference between A1222T vs A205V/A122T, biomass accumulation (0.5x=40 g ai/ha): −0.76 % of untreated
- Difference between A205V vs A205V/A122T, Phytotoxicity Index (1x=80 g ai/ha): −0.50
- Difference between A205V vs A205V/A122T, biomass accumulation (1x=80 g ai/ha): −13.45 % of untreated
- Difference between A205V vs A205V/A122T, plant height (1x=80 g ai/ha): 0.89 % of untreated
- Difference between A1222T vs A205V/A122T, plant height (1x=80 g ai/ha): 1.21 % of untreated
- ifference between A1222T vs A205V/A122T, Phytotoxicity Index (1x=80 g ai/ha): −0.21
- ifference between A1222T vs A205V/A122T, biomass accumulation (1x=80 g ai/ha): −2.17 % of untreated
- Difference between A205V vs A205V/A122T, Phytotoxicity Index (2x=160 g ai/ha): 1.66
- Difference between A205V vs A205V/A122T, biomass accumulation (2x=160 g ai/ha): −30.47 % of untreated
- Difference between A205V vs A205V/A122T, plant height (2x=160 g ai/ha): −24.63 % of untreated
- Difference between A1222T vs A205V/A122T, plant height (2x=160 g ai/ha): −0.32 % of untreated
- ifference between A1222T vs A205V/A122T, Phytotoxicity Index (2x=160 g ai/ha): −0.20
- ifference between A1222T vs A205V/A122T, biomass accumulation (2x=160 g ai/ha): −1.07 % of untreated
- Difference between A205V vs A205V/A122T, Phytotoxicity Index (3x=240 g ai/ha): 4.65
- Difference between A205V vs A205V/A122T, biomass accumulation (3x=240 g ai/ha): −41.42 % of untreated
- Difference between A205V vs A205V/A122T, plant height (3x=240 g ai/ha): −46.79 % of untreated
- Difference between A1222T vs A205V/A122T, plant height (3x=240 g ai/ha): −1.22 % of untreated
- ifference between A1222T vs A205V/A122T, Phytotoxicity Index (3x=240 g ai/ha): −0.17
- ifference between A1222T vs A205V/A122T, biomass accumulation (3x=240 g ai/ha): 0.55 % of untreated
- Difference between A205V vs A205V/A122T, Phytotoxicity Index (4x=320 g ai/ha): 6.92
- Difference between A205V vs A205V/A122T, biomass accumulation (4x=320 g ai/ha): −52.87 % of untreated
- Difference between A205V vs A205V/A122T, plant height (4x=320 g ai/ha): −62.01 % of untreated
- Difference between A1222T vs A205V/A122T, plant height (4x=320 g ai/ha): 1.15 % of untreated
- ifference between A1222T vs A205V/A122T, Phytotoxicity Index (4x=320 g ai/ha): 0.00
- ifference between A1222T vs A205V/A122T, biomass accumulation (4x=320 g ai/ha): −0.73 % of untreated
- Difference between A205V vs A205V/A122T, Phytotoxicity Index (5x=400 g ai/ha): 7.59
- Difference between A205V vs A205V/A122T, biomass accumulation (5x=400 g ai/ha): −46.69 % of untreated
- Difference between A205V vs A205V/A122T, plant height (5x=400 g ai/ha): −48.59 % of untreated
- Difference between A1222T vs A205V/A122T, plant height (5x=400 g ai/ha): 9.12 % of untreated
- ifference between A1222T vs A205V/A122T, Phytotoxicity Index (5x=400 g ai/ha): 0.21
- ifference between A1222T vs A205V/A122T, biomass accumulation (5x=400 g ai/ha): −1.14 % of untreated
- Difference between A205V vs A205V/A122T, Phytotoxicity Index (6x=480 g ai/ha): 7.19
- Difference between A205V vs A205V/A122T, biomass accumulation (6x=480 g ai/ha): −41.41 % of untreated
- Difference between A205V vs A205V/A122T, plant height (6x=480 g ai/ha): −31.39 % of untreated
- Difference between A1222T vs A205V/A122T, plant height (6x=480 g ai/ha): 19.49 % of untreated
- ifference between A1222T vs A205V/A122T, Phytotoxicity Index (6x=480 g ai/ha): 0.17
- ifference between A1222T vs A205V/A122T, biomass accumulation (6x=480 g ai/ha): 2.41 % of untreated
- Height reduction (A122T homozygous lines, 0.5x): 0.1%
- Biomass weight reduction (A122T homozygous, higher dose (6x)): 25%
- Height versus untreated controls (A205V homozygous lines and hybrid, 0.5x or 1x): did not differ from the untreated controls
- Phytotoxicity Index (scale 0-9) [1]: 0
- biomass accumulation (dry) [1]: 95.0 % of untreated
- Phytotoxicity Index (scale 0-9) (H1 (A205V hybrid), 1x=80 g ai/ha): 0
- Phytotoxicity Index (scale 0-9) (H1 (A205V hybrid), 2x=160 g ai/ha): 1.8
- Phytotoxicity Index (scale 0-9) (H1 (A205V hybrid), 3x=240 g ai/ha): 6.4
- Phytotoxicity Index (scale 0-9) (H1 (A205V hybrid), 4x=320 g ai/ha): 8.0
- Phytotoxicity Index (scale 0-9) (H1 (A205V hybrid), 5x=400 g ai/ha): 8.9
- Phytotoxicity Index (scale 0-9) (H1 (A205V hybrid), 6x=480 g ai/ha): 9.0
- Phytotoxicity Index (scale 0-9) [2]: 0.5
- biomass accumulation (dry) [2]: 100 % of untreated
- Phytotoxicity Index (scale 0-9) (H2 (A122T hybrid), 1x=80 g ai/ha): 0.5
- Phytotoxicity Index (scale 0-9) (H2 (A122T hybrid), 2x=160 g ai/ha): 0.5
- Phytotoxicity Index (scale 0-9) (H2 (A122T hybrid), 3x=240 g ai/ha): 0.5
- Phytotoxicity Index (scale 0-9) (H2 (A122T hybrid), 4x=320 g ai/ha): 0.5
- Phytotoxicity Index (scale 0-9) [3]: 0.5
- plant height [3]: 87.0 % of untreated
- Phytotoxicity Index (scale 0-9) (H2 (A122T hybrid), 6x=480 g ai/ha): 0.5
- Phytotoxicity Index (scale 0-9) (H3 (A122T/A205V hybrid), 0.5x=40 g ai/ha): 0.5
- Phytotoxicity Index (scale 0-9) [4]: 0.5
- biomass accumulation (dry) [4]: 100.0 % of untreated
- plant height [4]: 97.0 % of untreated
- Phytotoxicity Index (scale 0-9) (H3 (A122T/A205V hybrid), 2x=160 g ai/ha): 0.5
- Phytotoxicity Index (scale 0-9) (H3 (A122T/A205V hybrid), 3x=240 g ai/ha): 0.5
- Phytotoxicity Index (scale 0-9) [5]: 0.5
- plant height [5]: 92.0 % of untreated
- Phytotoxicity Index (scale 0-9) (H3 (A122T/A205V hybrid), 5x=400 g ai/ha): 0.6
- Phytotoxicity Index (scale 0-9) [6]: 1.0
- plant height [6]: 58.0 % of untreated
- Phytotoxicity Index (scale 0-9) [7]: 0.0
- plant height [7]: 100.0 % of untreated
- Phytotoxicity Index (scale 0-9) (H4 (A122T/A205V hybrid), 1x=80 g ai/ha): 0.0
- Phytotoxicity Index (scale 0-9) [8]: 0.0
- plant height [8]: 100.0 % of untreated
- Phytotoxicity Index (scale 0-9) [9]: 0.0
- plant height [9]: 100.0 % of untreated
- Phytotoxicity Index (scale 0-9) (H4 (A122T/A205V hybrid), 4x=320 g ai/ha): 0.0
